Laboratory results from the NIST ThermoML archive (doi:10.1021/acs.jced.7b00433).

Assay: xn = mol fraction of the nth substance listed
Settings: Drop volume

CCCC(N)C(=O)O (stereo not drawn) [DL-2-aminopentanoic acid] + O
surface tension liquid-gas [mN/m]
Settings	x1 = 0.000173	x1 = 0.000347	x1 = 0.000561	x1 = 0.00104	x1 = 0.001386	x1 = 0.001733	x1 = 0.002079	x1 = 0.002641
293.15 K	72.55	72.51	72.43	72.37	72.31	72.25	72.16	72.06
298.15 K	71.84	71.8	71.71	71.63	71.53	71.47	71.41	71.25
303.15 K	71.16	71.13	71.01	70.91	70.79	70.71	70.65	70.5
308.15 K	70.35	70.31	70.2	70.1	70.02	69.85	69.78	69.63
313.15 K	69.39	69.34	69.22	69.07	69	68.86	68.75	68.58

CC(N)C(=O)O (stereo not drawn) [DL-2-aminopropanoic acid] + O
surface tension liquid-gas [mN/m]
Settings	x1 = 0.000176	x1 = 0.000353	x1 = 0.000705	x1 = 0.001055	x1 = 0.001406	x1 = 0.001752	x1 = 0.002105	x1 = 0.002642
293.15 K	72.52	72.53	72.55	72.58	72.59	72.62	72.64	72.68
298.15 K	71.83	71.86	71.9	71.95	72	72.07	72.1	72.18
303.15 K	71.11	71.15	71.25	71.35	71.44	71.5	71.61	71.72
308.15 K	70.4	70.42	70.57	70.7	70.83	70.94	71.09	71.28
313.15 K	69.48	69.59	69.73	69.87	70.02	70.2	70.36	70.57

O [water] + CC(N)C(=O)O
x2 = 0
Settings	surface tension liquid-gas [mN/m]
293.15 K	72.5
298.15 K	71.73
303.15 K	71.04
308.15 K	70.3
313.15 K	69.42

O [water] + CCC(N)C(=O)O
x2 = 0
Settings	surface tension liquid-gas [mN/m]
293.15 K	72.5
298.15 K	71.73
303.15 K	71.1
308.15 K	70.27
313.15 K	69.5

O [water] + CCCC(N)C(=O)O
x2 = 0
Settings	surface tension liquid-gas [mN/m]
293.15 K	72.58
298.15 K	71.73
303.15 K	71.21
308.15 K	70.4
313.15 K	69.46

O [water] + CCCCC(N)C(=O)O
x2 = 0
Settings	surface tension liquid-gas [mN/m]
293.15 K	72.5
298.15 K	71.73
303.15 K	71
308.15 K	70.23
313.15 K	69.42

O [water] + NCC(=O)O
x2 = 0
Settings	surface tension liquid-gas [mN/m]
293.15 K	72.45
298.15 K	71.73
303.15 K	71
308.15 K	70.22
313.15 K	69.45
